Data on 6 compounds can be found in article PMC4210216, “Isolation, Purification and Molecular Mechanism of a Peanut Protein-Derived ACE-Inhibitory Peptide” (PLoS ONE, 2014).

Assay [1] deals with spontaneously hypertensive rats (SHRs). Briefly: Long-term antihypertensive activity in SHRs (28 days, SBP). The class given is in vivo, rat. To be noted: male SHR, captopril 40 mg/kg BW. The method, then:
The in vivo tests for antihypertensive activity of peanut peptide was conducted using a previous method, and whole tests were conducted in Chinese Medicine Experiment Center of Hubei College of Traditional Chinese Medicine, authorized by SATCM (State Administration of Traditional Chinese Medicine, China). The male spontaneously hypertensive rats (SHRs) was used for the experimental model while the average weight of each rat was between 210 and 240 g and four rats were numbered as one group for feeding. These rats had free access to food and drink in their cages located in a 25°C room temperature with 12 h of light cycle. After 1 week for adaptation to this environment, the determination of blood pressure was conducted and the comparison of different group was investigated. The SHRs were randomly divided into five groups, named blank control group, low-dose group (100 mg/kg body weight (BW)), intermediate-dose group (500 mg/kg BW), high-dose group (1000 mg/kg BW) and drug control group (40 mg Captopril/kg BW).
Long-term antihypertensive activity: Through the same method of sample preparation, these SHRs were feeded at the same time (9∶00 am–10∶00 am) of each day and the feeding continued for 28 days. […] Each SHR was measured for three times. […]

Assay [2] has as its target T1, ACE (protease from rabbit lung) (Oryctolagus cuniculus, UniProt P12822).
T1 construct: ACE (protease from rabbit lung); purchased Sigma Chemical Co., St. Louis, MO, USA; host or cells: rabbit lung (tissue-derived)
T1 sequence (P12822 34-1310): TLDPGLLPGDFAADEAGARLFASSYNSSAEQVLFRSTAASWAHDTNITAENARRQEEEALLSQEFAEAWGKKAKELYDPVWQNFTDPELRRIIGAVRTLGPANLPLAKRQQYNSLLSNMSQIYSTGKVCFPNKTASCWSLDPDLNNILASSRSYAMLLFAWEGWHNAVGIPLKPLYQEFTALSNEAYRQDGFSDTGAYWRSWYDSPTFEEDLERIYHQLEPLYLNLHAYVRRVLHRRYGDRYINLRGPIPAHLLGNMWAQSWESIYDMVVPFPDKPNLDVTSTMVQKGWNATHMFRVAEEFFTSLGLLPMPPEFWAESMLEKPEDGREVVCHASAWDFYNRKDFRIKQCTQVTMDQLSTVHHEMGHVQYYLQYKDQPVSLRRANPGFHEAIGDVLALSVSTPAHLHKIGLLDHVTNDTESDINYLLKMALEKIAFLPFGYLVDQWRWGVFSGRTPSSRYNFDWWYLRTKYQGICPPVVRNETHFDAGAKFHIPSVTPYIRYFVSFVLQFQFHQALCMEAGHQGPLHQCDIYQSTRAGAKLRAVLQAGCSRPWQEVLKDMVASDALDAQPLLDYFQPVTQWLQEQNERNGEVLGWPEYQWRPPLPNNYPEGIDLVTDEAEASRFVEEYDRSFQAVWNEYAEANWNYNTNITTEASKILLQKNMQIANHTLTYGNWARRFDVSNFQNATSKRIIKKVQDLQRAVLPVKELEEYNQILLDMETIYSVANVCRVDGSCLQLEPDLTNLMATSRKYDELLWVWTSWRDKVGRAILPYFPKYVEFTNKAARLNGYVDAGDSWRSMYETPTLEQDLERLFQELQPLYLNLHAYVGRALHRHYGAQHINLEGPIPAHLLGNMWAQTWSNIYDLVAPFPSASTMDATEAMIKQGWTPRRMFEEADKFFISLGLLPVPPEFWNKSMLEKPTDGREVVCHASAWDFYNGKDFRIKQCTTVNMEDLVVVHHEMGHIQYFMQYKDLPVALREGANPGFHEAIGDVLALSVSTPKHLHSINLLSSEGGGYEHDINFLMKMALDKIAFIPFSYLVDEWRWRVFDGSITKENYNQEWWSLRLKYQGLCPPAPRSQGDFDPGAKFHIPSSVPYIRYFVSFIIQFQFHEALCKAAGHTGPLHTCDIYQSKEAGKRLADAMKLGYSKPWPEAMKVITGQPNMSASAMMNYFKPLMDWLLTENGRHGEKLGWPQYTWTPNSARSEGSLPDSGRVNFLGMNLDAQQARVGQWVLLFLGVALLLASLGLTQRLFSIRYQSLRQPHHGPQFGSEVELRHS
The assay is described as follows: ACE inhibiting activity (in vitro tests), HHL substrate, HPLC. To be noted: HEPES pH 8.3, 37°C, 30 min. It counts as biochemical. From the text: PPI was purchased from Lanshan Group (Shandong, China). The following commercial enzymes were obtained: Alcalase (protease)-(Novo Industri A/S, Bagsvaerd, Denmark); N120P (protease)-(Kerry Co., Tralee, Ireland) and ACE (protease from rabbit lung)-(Sigma Chemical Co., St. Louis, MO, USA). Hippuryl-histidyl-leucine (HHL) was purchased from Sigma Chemical Co. (St. Louis, MO, USA). Methyl Cyanide (Merck & Co., Inc., Rahway, NJ, USA) and trifluoroacetic acid (TFA) (Fluka Co., Buchs, Switzerland) were purchased and were of chromatographic grade. All the other materials were of analytical grade and were used as received.
Determination of ACE inhibiting activity (in vitro tests)
ACE inhibiting activity was measured using Cushman and Cheung’s method with slight modification, [34]. Specifically, 20 µL of 4-hydroxyethylpiperazine ethane sulfonic acid (HEPEs) buffer solution (pH 8.3) was mixed with 20 µL sample solution in a 0.5 ml centrifuge tube. Then, 15 µL ACE solution was added into this tube and warmed at 37°C for 3 min. […]
The ACE inhibiting activity (%) was expressed in terms of hippuric acid content and was calculated using (1). […]
The dried peanut peptide powder having molecule weight below 1 kDa was first dissolved in water to make a peptide solution with 100 mg/ml concentration. […] The IC50 of each fraction was determined as in vitro tests.

Another assay has as its system ACE. Details: method as in 3 sources, ref 52 = [52]; PMID 19886677; doi:10.1021/jf901787e; 52 Guang C , Phillips RD ( 2009 ) Purification, activity and sequence of angiotensin I converting enzyme inhibitory peptide from alcalase hydrolysate of peanut flour . Journal of agricultural and food ||| ref 43 = [43]; PMID 16680798; doi:10.1002/psc.758; 43 Li GH , Wan JZ , Le GW , Shi YH ( 2006 ) Novel angiotensin I-converting enzyme inhibitory peptides isolated from Alcalase hydrolysate of mung bean protein . Journal of Peptide Science 12 : 509 – 51 ||| ref 45 = [45]; 45 Li GH , Le GW , Shi YH , Shrestha S ( 2004 ) Angiotensin I–converting enzyme inhibitory peptides derived from food proteins and their physiological and pharmacological effects . Nutrition Research. Particulars: cited from earlier work; for mode of ACE inhibition: from human serum trypsin hydrolysate.

No end group written: not given here.

Consider `C[C@H](CS)C(=O)N1CCC[C@H]1C(=O)O` [captopril], for which the “antihypertensive activity compared with peanut peptide, long term” value in assay [1] is “stronger antihypertensive activity during the long term experiment”.
In general, IC50 refers to the concentration at which inhibition is half-maximal. What is called inhibition is the share of the control response that was lost under treatment. High values mean strong suppression, low ones little suppression. As for “KLYMRP [Fraction P8, Lys-Leu-Tyr-Met-Arg-Pro]”, the half-inhibitory concentration (IC50) in assay [2] (printed in parentheses beside the mg/mL value, read-out: IC50 (ACE inhibition)) was found to be 6.42 µM. For the same compound, 100 µg/mL produced 85.8% inhibition in assay [2] (peptide concentration 100 µg/ml, HPLC UV 228 nm).
Regarding Leu-Ile-Tyr, in the assay on ACE, the “mode of ACE inhibition” value is on record as “non-competitive”.
As to “Lys-Ala-Phe-Arg [peanut tetrapeptide of Guang and Phillips]”, the ACE inhibiting activity with ACE (peanut tetrapeptide) is 16.9 µg/mL.
Take VTPALR: the IC50 in the assay on ACE (from mung bean protein isolate using alcalase) was 82.4 µM.
As for YLYEIAR, the “mode of ACE inhibition” value with ACE is on record as “non-competitive”.
